The test system of experiment [1] is Phosphorylation of ERK1/2 in A549 cells. Kind of experiment: Phospho-ERK1/2 MSD assay in A549 cells. Type of experiment: cell-based. The settings on record: read-out: p-ERK IC50 (2 h, A549; μM), 2 h compound treatment, A549 cells, EGF stimulated. In outline:
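Dose-response treatment lasted 2 or 4 h in RPMI 1640/10% FBS at 37 °C. EGF-stimulated (10 ng/mL, 10 min) ERK1/2 phosphorylation was then quantified in cell lysates with a Meso Scale Discovery phospho-ERK1/2 assay.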

For experiment [2], the system named is Phosphorylation of ERK1/2 in MIA PaCa-2 cells. Kind of experiment: Phospho-ERK1/2 MSD assay in MIA PaCa-2 cells. The class given is cell-based. As to conditions: read-out: p-ERK IC50 (2 h, MiaPaCa-2; μM), 2 h compound treatment, MIA PaCa-2 cells, EGF stimulated. An outline of the steps:
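Phospho-ERK1/2 measured by MSD electrochemiluminescence kit in RIPA lysates of MIA PaCa-2 cells. Cells were treated with compound titrations for 2 or 4 h at 37 °C, 5% CO2, followed by a 10 min pulse of 10 ng/mL EGF.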

Experiment [3] deals with GDP-bound KRAS protein (aa 1-169), containing both G12C and C118A amino acid substitutions (Homo sapiens (Human), UniProt P01116, C118A/G12C). Kind of experiment: Coupled nucleotide exchange assay (SOS-mediated nucleotide exchange, AlphaScreen). Type of experiment: biochemical. The settings on record: read-out: Coupled exchange IC50 (5 min; μM); 5 min compound pre-incubation.
GDP-bound KRAS protein (aa 1-169), containing both G12C and C118A amino acid substitutions, sequence (P01116 other isoform, or with tags, fused parts or gaps G12C/C118A): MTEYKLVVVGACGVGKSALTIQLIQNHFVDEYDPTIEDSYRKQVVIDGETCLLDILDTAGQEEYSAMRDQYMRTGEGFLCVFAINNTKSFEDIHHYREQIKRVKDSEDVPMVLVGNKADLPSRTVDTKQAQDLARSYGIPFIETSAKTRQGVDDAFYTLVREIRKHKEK

Where two headings read alike, the source gives them in different places. Bounds are passed on as bounds.

With `C=CC(=O)N1C[C@H](C)N(c2nc(=O)n(-c3c(C)cc(CN(C)C)nc3C(C)C)c3nc(-c4ccccc4F)c(Cl)cc23)C[C@H]1C` [Example 121-1, 4-((2S,5R)-4-Acryloyl-2,5-dimethylpiperazin-1-yl)-6-chloro-1-(6-((dimethylamino)methyl)-2-isopropyl-4-methylpyridin-3-yl)-7-(2-fluorophenyl)pyrido[2,3-d]pyrimidin-2(1H)-one], the IC50 in experiment [1] (Homo sapiens, A549, 2 h) was over 7.5 µM; in experiment [2] (Homo sapiens, MIA PaCa-2, 2 h), 0.086 µM; in experiment [3], 0.195 µM.

As for `C=CC(=O)N1C[C@H](C)N(c2nc(=O)n(-c3c(C)cc(CN4CCCC4)nc3C(C)C)c3nc(-c4ccccc4F)c(Cl)cc23)C[C@H]1C` [Example 121-2, 6-Chloro-4-[(2S,5R)-2,5-dimethyl-4-prop-2-enoyl-piperazin-1-yl]-7-(2-fluorophenyl)-1-[2-isopropyl-4-methyl-6-(pyrrolidin-1-ylmethyl)-3-pyridyl]pyrido[2,3-d]pyrimidin-2-one], the IC50 in experiment [1] (Homo sapiens, A549, 2 h) is over 7.5 µM; in experiment [2] (Homo sapiens, MIA PaCa-2, 2 h), 0.081 µM; in experiment [3], 0.096 µM.

`C=CC(=O)N1[C@H](C)CN(c2nc(=O)n(-c3c(C(C)C)ccnc3C(C)C)c3nc(-c4ccccc4C)c(Cl)cc23)C[C@@H]1C` [Example 124-11, 6-Chloro-1-(2,4-diisopropyl-3-pyridyl)-4-[(3R,5S)-3,5-dimethyl-4-prop-2-enoyl-piperazin-1-yl]-7-(o-tolyl)pyrido[2,3-d]pyrimidin-2-one]: the 50% inhibitory concentration (IC50) in experiment [1] (Homo sapiens, A549, 2 h) is over 7.5 µM; in experiment [2] (Homo sapiens, MIA PaCa-2, 2 h), 0.098 µM; in experiment [3] it was 0.075 µM.

Regarding `C=CC(=O)N1C[C@H](C)N(c2nc(=O)n(-c3c(C(C)C)ccnc3C(C)C)c3nc(-c4ccccc4F)c(Cl)cc23)C[C@H]1C` [Example 125-1, 4-((2S,5R)-4-Acryloyl-2,5-dimethylpiperazin-1-yl)-6-chloro-1-(2,4-diisopropylpyridin-3-yl)-7-(2-fluorophenyl)pyrido[2,3-d]pyrimidin-2(1H)-one], the IC50 in experiment [1] is over 7.5 µM; in experiment [2], 0.055 µM; in experiment [3], 0.028 µM.

On to `C=CC(=O)N1[C@H](C)CN(c2nc(=O)n(-c3c(C(C)C)ccnc3C(C)C)c3nc(-c4ccccc4C)c(Cl)cc23)C[C@@H]1C` [Example 125-11, 6-Chloro-1-(2,4-diisopropyl-3-pyridyl)-4-[(3R,5S)-3,5-dimethyl-4-prop-2-enoyl-piperazin-1-yl]-7-(o-tolyl)pyrido[2,3-d]pyrimidin-2-one], for which the IC50 in experiment [1] was over 7.5 µM; in experiment [2] it was 0.187 µM; in experiment [3], 0.091 µM.

Take `C=CC(=O)N1C[C@H](C)N(c2nc(=O)n(-c3c(C)ccnc3C(C)C)c3nc(-c4cccc(F)c4NC(C)=O)c(Cl)cc23)C[C@H]1C` [Example 129-12, N[2-(6-Chloro-4-[(2S,5R)-2,5-dimethyl-4-prop-2-enoyl-piperazin-1-yl]-1-(2-isopropyl-4-methyl-3-pvridyl)-2-oxo-pyrido[2,3-d]pyrimidin-7-yl]-6-fluoro-phenyl]acetamide]: the IC50 in experiment [1] (Homo sapiens, A549, 2 h) is over 7.5 µM; in experiment [2] (Homo sapiens, MIA PaCa-2, 2 h), 0.39 µM; in experiment [3] it was 0.167 µM.

Take `C=CC(=O)N1C[C@H](C)N(c2nc(=O)n(-c3c(CN4CCCC4)ccnc3C(C)C)c3nc(-c4ccccc4C(C)C)c(Cl)cc23)C[C@H]1C` [Example 141-3, 6-Chloro-4-[(2S,5R)-2,5-dimethyl-4-prop-2-enoyl-piperazin-1-yl]-7-(2-isopropylphenyl)-1-[2-isopropyl-4-(pyrrolidin-1-ylmethyl)-3-pyridyl]pyrido[2,3-d]pyrimidin-2-one]: the IC50 in experiment [1] (Homo sapiens, A549, 2 h) is over 7.5 µM; in experiment [2] (Homo sapiens, MIA PaCa-2, 2 h), 0.331 µM; in experiment [3] it was 0.197 µM.

Consider `C=CC(=O)N1CCN(c2nc(=O)n(CC(C)(C)C)c3nc(-c4ccccc4F)c(Cl)cc23)CC1CC#N` (stereo not drawn) [Example 145-1, 2-[4-[6-Chloro-1-(2,2-dimethylpropyl)-7-(2-fluorophenyl)-2-oxo-pyrido[2,3-d]pyrimidin-4-yl]-1-prop-2-enoyl-piperazin-2-yl]acetonitrile], for which the IC50 is 5.75 µM in experiment [1] (Homo sapiens, A549, 2 h); 10 µM in experiment [2]; 2.07 µM in experiment [3].

Turning to `C=CC(=O)N1CCN(c2nc(=O)n(CC(C)(C)C)c3nc(-c4ccccc4F)c(Cl)cc23)C(CC#N)C1` (stereo not drawn) [Example 145-3, 2-[1-[6-Chloro-1-(2,2-dimethypropyl)-7-(2-fluorophenyl)-2-oxo-pyrido[2,3-d]pyrimidin-4-yl]-4-prop-2-enoyl-piperazin-2-yl]acetonitrile], the concentration for half-maximal inhibition (IC50) turned out to be 4.41 µM in experiment [1] (Homo sapiens, A549, 2 h); 10 µM in experiment [2] (Homo sapiens, MIA PaCa-2, 2 h); 3.82 µM in experiment [3].

For `C=CC(=O)N1C[C@H](C)N(c2nc(=O)n3c4nc(c(Cl)cc24)-c2ccccc2OC/C=C/Cc2ccccc2-3)C[C@H]1C` [Example 146-4, 20-chloro-23-((2S,5R)-2,5-dimethyl-4-(2-propenoyl)-1-piperazinyl)-12-oxa-1,24,27-triazapentacyclo[17.6.2.0~2,7~.0~13,18~.0~22,26~]heptacosa-2,4,6,9,13,15,17,19,21,23,26-undecaen-25-one], the half-inhibitory concentration (IC50) in experiment [1] (Homo sapiens, A549, 2 h) is over 7.5 µM; in experiment [2] (Homo sapiens, MIA PaCa-2, 2 h), 4.19 µM; in experiment [3] it was 8.13 µM.

Consider `C=CC(=O)N1C[C@H](C)N(c2nc(=O)n(-c3c(C(C)C)ncnc3C(C)C)c3nc(-c4ccc(F)cc4F)c(F)cc23)C[C@H]1C` [Example 153, 7-(2,4-Difluorophenyl)-1-(4,6-diisopropylpyrimidin-5-yl)-4-[(2S,5R)-2,5-dimethyl-4-prop-2-enoyl-piperazin-1-yl]-6-fluoro-pyrido[2,3-d]pyrimidin-2-one], for which the IC50 was over 7.5 µM in experiment [1] (Homo sapiens, A549, 2 h); 0.264 µM in experiment [2] (Homo sapiens, MIA PaCa-2, 2 h); 0.38 µM in experiment [3].

On to `C=CC(=O)N1C[C@H](C)N(c2nc(=O)n(-c3c(C(C)C)nc(OC)nc3C(C)C)c3nc(-c4ccccc4F)c(Cl)cc23)C[C@H]1C` [Example 154, 6-Chloro-1-(4,6-diisopropyl-2-methoxy-pyrimidin-5-yl)-4-[(2S,5R)-2,5-dimethyl-4-prop-2-enoyl-piperazin-1-yl]-7-(2-fluorophenyl)pyrido[2,3-d]pyrimidin-2-one], for which the half-maximal inhibitory concentration (IC50) in experiment [1] (Homo sapiens, A549, 2 h) was found to be 6.96 µM; in experiment [2] (Homo sapiens, MIA PaCa-2, 2 h), 0.049 µM; in experiment [3], 0.062 µM.

In the case of `C=CC(=O)N1C[C@H](C)N(c2nc(=O)n(-c3c(C(C)C)nc(C#N)nc3C(C)C)c3nc(-c4ccccc4F)c(Cl)cc23)C[C@H]1C` [Example 155, 5-[6-Chloro-4-[(2S,5R)-2,5-dimethyl-4-prop-2-enoyl-piperazin-1-yl]-7-(2-fluorophenyl)-2-oxo-pyrido[2,3-d]pyrimidin-1-yl]-4,6-diisopropyl-pyrimidine-2-carbonitrile], the concentration for half-maximal inhibition (IC50) stood at 2.59 µM in experiment [1] (Homo sapiens, A549, 2 h); 0.063 µM in experiment [2] (Homo sapiens, MIA PaCa-2, 2 h); 0.104 µM in experiment [3].

Take `C=CC(=O)N1C[C@H](C)N(c2nc(=O)n(-c3c(C(C)C)nc(OCCOC)nc3C(C)C)c3nc(-c4ccccc4F)c(Cl)cc23)C[C@H]1C` [Example 156, 4-((2S,5R)-4-Acryloyl-2,5-dimethylpiperazin-1-yl)-6-chloro-1-(4,6-diisopropyl-2-(2-methoxyethoxy)pyrimidin-5-yl)-7-(2-fluorophenyl)pyrido[2,3-d]pyrimidin-2(1H)-one]: the half-maximal inhibitory concentration (IC50) is over 7.5 µM in experiment [1] (Homo sapiens, A549, 2 h); 0.148 µM in experiment [2] (Homo sapiens, MIA PaCa-2, 2 h); 0.369 µM in experiment [3].

Source of the values: patent publication US11285156B2, “Substituted piperazines as KRAS G12C inhibitors” (Amgen Inc., priority 2018, dated 2022).
